Laboratory results taken from patent US4647587A, “Method for treatment of antidiuresis employing serine derivatives” (Sumitomo Pharmaceuticals Company, Limited, priority 1984, dated 1987).

Experiments:
[1] = Effect of periphery decarboxylase inhibitor (DCI) on diuretic action of L-threo-DOPS (Experimental Example 3); format: in vivo, rats; conditions: for effect on diuretic action of L-threo-DOPS when used together (in words): p.o. at the same time with L-threo-DOPS
Description: Investigation was made on the effect of L-threo-DOPS on diuretic action when DCI, benserazide or carbidopa was dosed by oral administration at the same time, as in the same manner as Experimental Example 1.

renal blood vessel = conditions: in vivo; cited from earlier work
[2] = animals; U.S. Pat. No. 3,920,728; cited from earlier work
[3] = Effect of L-threo-DOPS on electrolytes in urine of rats (Experimental Example 1); format: in vivo; conditions: for amount of Cl^- in urine / amount of K^+ in urine / amount of Na^+ in urine: 3 hours, average of 5 groups±S.E.
Description: (§1) Three rats starved for 17 hours were arranged to form a group. Ten mg/kg, 30 mg/kg, and 100 mg/kg of L-threo-DOPS were suspended in a 0.5% aqueous solution of methyl cellulose, respectively, and orally administered together with 25 ml/kg of isotonic sodium chloride solution. To the control groups were dosed only 0.5% aqueous solution of methyl cellulose and isotonic sodium chloride solution. The urinary volume was measured through 3 hours after the dosage. In addition, among electrolytes in the urine, amounts of sodium ion (Na^+) and potassium ion (K^+) were measured by a flame photometer, and an amount of chlorine ion (Cl^-) by the method of Zall et al. (Anal. Chem. 28, 1665).
In the table, values are represented in a unit of mEq/kg/3 hr and as the average of 5 groups±S.E.

[4] = Acute toxicity by oral dosage to mouse; conditions: in vivo
[5] = system: aromatic L-amino acid decarboxylase; conditions: cited from earlier work; for NA isomer formed: in vivo
harmaline induced tremor = conditions: Japanese Patent Publication 125630/1977; cited from earlier work
[6] = Effect of L-threo-DOPS on urinary volume of rats (Experimental Example 1); format: in vivo; conditions: rats, 10, 30, 100 mg/kg p.o., 3 hours, FIG. 1
Description: (§2) The ordinate represents the urinary volume (ml/kg/3 hr) and the abscissa, the amount of dosage of L-threo-DOPS (mg/kg).
(§3) In FIG. 1 and FIG. 2, the mark * represents p<0.05 (compared with the control group).
as §1

[7] = rats; Araki et al. 1981; cited from earlier work
[8] = Effect of L-threo-DOPS on urinary volume of mice (Experimental Example 2); format: in vivo; conditions: FIG. 2
Description: as §2, §3
Ten mice starved for 17 hours were arranged to form a group. Ten mg/kg, 30 mg/kg, and 100 mg/kg of L-threo-DOPS were suspended in a 0.5% aqueous solution of methyl cellulose, respectively, and orally administered together with […] of isotonic sodium chloride solution. To the control groups were dosed only 0.5% aqueous solution of methyl cellulose and isotonic sodium chloride solution.

[9] = Amount of NA in the kidney and heart of rats after the dosage of L-threo-DOPS (Experimental Example 4); format: in vivo
Description: To the rats were dosed 30 mg/kg of L-threo-DOPS by oral adminstration, and the amount of NA in the kidney and heart after 1 hour was measured.
The method for the measurement was nearly in accordance with the method of Suzuki, et al. (Europ. J. Clin. Pharmacol., 23, 463, 1982).

[10] = rats; Araki et al. 1978; cited from earlier work
[11] = Acute toxicity by oral dosage to dog; conditions: in vivo
[12] = clinical tests; U.S. Pat. No. 4,497,826; cited from earlier work
[13] = Diuretic action (general statement); format: in vivo; conditions: for diuretic action (in words): in vivo
[14] = clinical tests; U.S. Pat. No. 4,330,558; cited from earlier work
[15] = Acute toxicity by oral dosage to rat; conditions: in vivo
[16] = U.S. Pat. No. 4,529,603; cited from earlier work
[17] = rats, 30 mg/kg p.o., after 1 hour, average of 5 rats±S.E.

SMILES: C[C@@](Cc1ccc(O)c(O)c1)(NN)C(=O)O [carbidopa]
- effect on diuretic action of L-threo-DOPS when used together (in words) [1]: significantly decreased

SMILES: NC[C@H](O)c1ccc(O)c(O)c1 [l-NA]
- action on the renal blood vessel (renal blood vessel): contractive action
- effect on renal blood flow (renal blood vessel): decrease in the renal blood flow

SMILES: N[C@H](C(=O)O)[C@@H](O)c1ccc(O)c(O)c1 (relative stereo) [erythro-DOPS, reference compound]
- antihypertensive or antidepressive effect [2]: antihypertensive or antidepressive effect

SMILES: N[C@H](C(=O)O)[C@H](O)c1ccc(O)c(O)c1 [L-threo-DOPS]
- amount of Cl^- in urine ([3]; 10 mg/kg p.o.): 1.89 ± 0.14 mEq/kg/3 hr
- amount of K^+ in urine ([3]; 10 mg/kg p.o.): 0.32 ± 0.03 mEq/kg/3 hr
- amount of Na^+ in urine ([3]; 10 mg/kg p.o.): 1.58 ± 0.12 mEq/kg/3 hr
- amount of Cl^- in urine ([3]; 30 mg/kg p.o.): 2.97 ± 0.25 mEq/kg/3 hr
- amount of K^+ in urine ([3]; 30 mg/kg p.o.): 0.37 ± 0.05 mEq/kg/3 hr
- amount of Na^+ in urine ([3]; 30 mg/kg p.o.): 2.45 ± 0.32 mEq/kg/3 hr
- amount of Cl^- in urine ([3]; 100 mg/kg p.o.): 3.24 ± 0.07 mEq/kg/3 hr
- amount of K^+ in urine ([3]; 100 mg/kg p.o.): 0.45 ± 0.03 mEq/kg/3 hr
- amount of Na^+ in urine ([3]; 100 mg/kg p.o.): 3.15 ± 0.07 mEq/kg/3 hr
- amount of Na^+ in urine (in words) ([3]; groups dosed 10 mg/kg or more p.o.): significantly increases
- amount of Cl^- in urine (in words) ([3]; only in groups dosed 30 mg/kg or more p.o.): significantly increased
- amount of K^+ in urine (in words) ([3]; only in the group dosed 100 mg/kg p.o.): significant increase
- amount of K^+ in urine (in words) ([3]; p.o., doses in general): not so much influenced
- LD50 [4]: ≥ 10000 mg/kg
- NA isomer formed [5]: natural type l-NA
- effect on harmaline induced tremor (harmaline induced tremor): inhibitory effect
- Urinary volume ([1]; L-threo-DOPS 30 mg/kg p.o. alone, average of 5 groups±S.E.): 51.9 ± 3.0 ml/kg/3 hr
- urinary volume (in words) [6]: Increase in the urinary volume was recognized in accordance with the amount of dosage
- pressor effect [7]: pressor effect
- urinary volume (in words) ([8]; mice, 10, 30, 100 mg/kg p.o.): increases the urinary volume in accordance with the amount of dosage
- urinary volume, significance (in words) ([8]; mice, group dosed 100 mg/kg p.o.): significant
- NA in the heart (in words) ([9]; 30 mg/kg p.o.): no influence
- amount of NA in the kidney (in words) ([9]; 30 mg/kg p.o.): markedly increases
- NA concentration in the kidney compared with those in other organs (in words) ([9]; rat, in vivo): significantly increased
- amount of NA in the heart [9, 17]: 1.00 ± 0.06 ng/g wet weight
- amount of NA in the kidney [9, 17]: 1.80 ± 0.35 ng/g wet weight
- positive chronotropic effect [10]: positive chronotropic effect
- LD50 [11]: ≥ 10000 mg/kg
- effect on freezing phenomena of Parkinson's disease [12]: beneficial effects
- course of diuretic action (in words) ([13]; easy manner such as oral administration): uniformly and prolongably
- diuretic action (in words) [13]: significant diuretic action
- effect on orthostatic hypotension [14]: beneficial effects
- LD50 [15]: ≥ 10000 mg/kg

SMILES: N[C@H](C(=O)O)[C@H](O)c1ccc(O)c(O)c1 (relative stereo) [threo-DOPS, threo-3-(3,4-dihydroxyphenyl)-serine]
- antihypertensive or antidepressive effect [2]: antihypertensive or antidepressive effect

SMILES: N[C@H](C(=O)O)[C@@H](O)c1ccc(O)c(O)c1 [L-erythro-DOPS]
- NA isomer formed [5]: unnatural type d-NA
- effect on psychmotor excitement [16]: suppressive effect

SMILES: NC(CO)C(=O)NNCc1ccc(O)c(O)c1O (stereo not drawn) [benserazide]
- effect on diuretic action of L-threo-DOPS when used together (in words) [1]: significantly decreased

SMILES: N[C@H](C(=O)O)C(O)c1ccc(O)c(O)c1 (stereo partly drawn) [L-DOPS]
- conversion to noradrenaline in vivo ([5]; by aromatic L-amino acid decarboxylase): converted to noradrenaline

SMILES: N[C@H](C(=O)O)[C@H](O)c1ccc(O)c(O)c1 (relative stereo) [DL-threo-DOPS]
- LD50 [4]: ≥ 10000 mg/kg
- LD50 [11]: ≥ 10000 mg/kg
- effect on freezing phenomena of Parkinson's disease [12]: beneficial effects
- diuretic action (in words) [13]: significant diuretic action
- effect on orthostatic hypotension [14]: beneficial effects
- LD50 [15]: ≥ 10000 mg/kg
